By pEC50 is commonly meant the EC50 on a negative log10 scale, so that one unit is a factor of ten.

Test [1] concerns Human Rhinovirus 14 (HRV14). Briefly: H1-HeLa HRV-CTG 384-well assay, HRV14, Example X. The class given is cell-based. To be noted: Rhinovirus B, 96 h, read-out: EC50 H1-HeLa_HRV 14_HRV-CTG 384-well Assay (per Ex. X). An excerpt: Example X: H1-HeLa HRV-CTG 384-Well Assay
H1-Hela cell line (ATCC, Manassas, VA, Cat #CRL-1958) was maintained in Dulbecco's […] (DMEM) (Corning, New York, NY, Cat #15-018CM) supplemented with 10% fetal bovine serum (FBS) (Hyclone, Logan, UT, Cat #SH30071-03), and 1× Penicillin-Streptomycin-L-Glutamine (Corning, New York, NY, Cat #30-009-CI). Cells were passaged 2 times per week to maintain sub-confluent densities and were used for experiments at passage 5-30. The Human Rhinovirus 1B (HRV1B) (ATCC, Manassas, VA, Cat #VR-1645), Human Rhinovirus 14 (HRV14) (ATCC, Manassas, VA, Cat #VR-284), and Human Rhinovirus 16 (HRV16) (ATCC, Manassas, VA, Cat #BR-283) was obtained through ATCC. Viral infection was monitored by determining viability of H1-HeLa cells as described below.
Test molecules are prepared in 100% DMSO in 384-well polypropylene plates (Greiner, Monroe, NC, Cat #784201) with 8 compounds per plate in grouped replicates of 4 at 10 serially diluted concentrations (1:3). The serially diluted compounds were transferred to low dead volume Echo plates (Labcyte, Sunnyvale, CA, Cat #LP-0200).
The test compounds were spotted to 384-well assay plates (Greiner, Monroe, NC, Cat #781091) at 200 nL per well using an Echo acoustic dispenser (Labcyte, Sunnyvale, CA). H1-HeLa cells were harvested and suspended in DMEM (supplemented with 2% FBS and 1× Penicillin-Streptomycin-L-Glutamine) and seeded to the pre-spotted assay plates at 5,000 cells per well in 30 μL. HRV1B, HRV14, and HRV16 was diluted in DMEM (supplemented with 2% FBS and 1× Penicillin-Streptomycin-L-Glutamine) at 97.1 million Infectious Units (IU) per mL, 151 million IU per mL and 221 million IU per mL respectively. 10 μL of virus per well was added to the assay plates containing cells and compounds, for an MOI of 0.5, 1.0, and 0.25 respectively. The assay plates were incubated for 4 days at 37° C. and 5% CO2. At the end of incubation, Celltiter-Glo (Promega, Madison, WI, Cat #G7573) was prepared. The assay plates and Celltiter-Glo reagent were equilibrated to room temperature for at least 15 minutes. 40 μL per well of Celltiter-Glo reagent was added and the plates were incubated at room temperature for 15 minutes before reading the luminescence signal on an EnVision multimode plate reader (Perkin Elmer, Waltham, MA). Rupintrivir was used as positive control and DMSO was used as negative control. Values were normalized to the positive and negative controls (as 0% and 100% replication, respectively) and data was fitted using non-linear regression analysis by Gilead's dose response tool. The EC50 value for each compound was defined as the concentration reducing viral replication by 50%.

The test system of test [2] is Respiratory syncytial virus recombinant with luciferase (RSV-Luc5). Briefly: NHBE RSV-Luc5 384-well assay (EC50 RSVFLUC NHBE-384 v2), Example W. The class given is cell-based. To be noted: human respiratory syncytial virus, 72 h, read-out: EC50 RSV FLUC NHBE 384 V2 (per Ex. W). The source says: Example W: NHBE RSV-Luc5 384-Well Assay (EC50 RSVFLUC NHBE-384 v2)
Normal Human Bronchial Epithelial (NHBE) cells were purchased from Lonza (Walkersville, MD Cat #CC2540) and maintained in BEGM Bronchial Epithelial Cell Growth Medium BulletKit (Lonza CC-3170).
Cells were thawed, expanded, and were used for experiments at passage 2. Respiratory syncytial virus recombinant with luciferase (RSV-Luc5) (≥1×10^7 Infectious Units/mL (IU/mL) determined by TCID50) was purchased from Microbiologics (Saint Cloud, MN). Viral replication was determined in NHBE cells in the following manner.
Compounds are prepared in 100% DMSO in 384-well polypropylene plates (Greiner, Monroe, NC, Cat #784201) with 8 compounds per plate in grouped replicates of 4 at 10 serially diluted concentrations (1:3). The serially diluted compounds were transferred to low dead volume Echo plates (Labcyte, Sunnyvale, CA, Cat #LP-0200).
The test compounds were spotted to 384-well assay plates (Greiner, Monroe, NC, Cat #781091) at 200 nL per well using an Echo acoustic dispenser (Labcyte, Sunnyvale, CA). NHBE cells were harvested and suspended in BEGM Bronchial Epithelial Cell Growth Medium BulletKit and seeded to the pre-spotted assay plates at 5,000 cells per well in 30 μL. RSV-Luc5 virus was diluted in BEGM Bronchial Epithelial Cell Growth Medium BulletKit at 500,000 Infectious Units (IU) per mL and 10 μL per well was added to the assay plates containing cells and compounds, for an MOI of 1. The assay plates were incubated for 3 days at 37° C. and 5% CO2. At the end of incubation, One-Glo reagent (Promega, Madison, WI, Cat #E6120) was prepared. The assay plates and One-Glo reagent were equilibrated to room temperature for at least 15 minutes. 40 μL per well of One-Glo reagent was added and the plates were incubated at room temperature for 15 minutes before reading the luminescence signal on an EnVision multimode plate reader (Perkin Elmer, Waltham, MA). Remdesivir was used as positive control and DMSO was used as negative control. Values were normalized to the positive and negative controls (as 0% and 100% replication, respectively) and data was fitted using non-linear regression analysis by Gilead's dose response tool. The EC50 value for each compound was defined as the concentration reducing the viral replication by 50%.

[3] abbreviates: H1-HeLa cells, HRV14 MOI 1.0, 4 days, Celltiter-Glo.

The structures appear in SMILES notation. pEC50: −log10 of the molar value. Where two headings read alike, the source gives them in different places.

As to `N#C[C@]1(COC(=O)OC2CCCC2)O[C@@H](c2ccc3c(N)ncnn23)[C@H](O)[C@@H]1O` [Compound 1, ((2R,3S,4R,5S)-5-(4-aminopyrrolo[2,1-f][1,2,4]triazin-7-yl)-2-cyano-3,4-dihydroxytetrahydrofuran-2-yl)methyl cyclopentyl carbonate], the pEC50 in test [1] (setting [3]) was 4.72; in test [2], 4.89.

As to `CC(C)(C)COC(=O)OC[C@@]1(C#N)O[C@@H](c2ccc3c(N)ncnn23)[C@H](O)[C@@H]1O` [Compound 2, ((2R,3S,4R,5S)-5-(4-aminopyrrolo[2,1-f][1,2,4]triazin-7-yl)-2-cyano-3,4-dihydroxytetrahydrofuran-2-yl)methyl neopentyl carbonate], the pEC50 in test [1] (setting [3]) was 5.12; in test [2], 4.94.

As for `CC[C@H](C)OC(=O)OC[C@@]1(C#N)O[C@@H](c2ccc3c(N)ncnn23)[C@H](O)[C@@H]1O` [Compound 4, ((2R,3S,4R,5S)-5-(4-aminopyrrolo[2,1-f][1,2,4]triazin-7-yl)-2-cyano-3,4-dihydroxytetrahydrofuran-2-yl)methyl ((S)-sec-butyl) carbonate], the pEC50 in test [1] (setting [3]) was 4.65; in test [2], 5.01.

In the case of `N#C[C@]1(COC(=O)OCCc2ccccc2)O[C@@H](c2ccc3c(N)ncnn23)[C@H](O)[C@@H]1O` [Compound 5, ((2R,3S,4R,5S)-5-(4-aminopyrrolo[2,1-f][1,2,4]triazin-7-yl)-2-cyano-3,4-dihydroxytetrahydrofuran-2-yl)methyl phenethyl carbonate], the pEC50 is 5.01 in test [1] (setting [3]) and 4.90 in test [2].

Regarding `COC(=O)OC[C@@]1(C#N)O[C@@H](c2ccc3c(N)ncnn23)[C@H](O)[C@@H]1O` [Compound 6, ((2R,3S,4R,5S)-5-(4-aminopyrrolo[2,1-f][1,2,4]triazin-7-yl)-2-cyano-3,4-dihydroxytetrahydrofuran-2-yl)methyl methyl carbonate], the pEC50 in test [1] (setting [3]) is 4.82; in test [2], 4.44.

With `CC(C)CCOC(=O)OC[C@@]1(C#N)O[C@@H](c2ccc3c(N)ncnn23)[C@H](O)[C@@H]1O` [Compound 7, ((2R,3S,4R,5S)-5-(4-aminopyrrolo[2,1-f][1,2,4]triazin-7-yl)-2-cyano-3,4-dihydroxytetrahydrofuran-2-yl)methyl isopentyl carbonate], the pEC50 in test [1] (setting [3]) was 5.14; in test [2] it was 4.86.

On to `CC(C)COC(=O)OC[C@@]1(C#N)O[C@@H](c2ccc3c(N)ncnn23)[C@H](O)[C@@H]1O` [Compound 8, ((2R,3S,4R,5S)-5-(4-aminopyrrolo[2,1-f][1,2,4]triazin-7-yl)-2-cyano-3,4-dihydroxytetrahydrofuran-2-yl)methyl isobutyl carbonate], for which the pEC50 is 5.12 in test [1] (setting [3]) and 4.90 in test [2].

As to `CCCOC(=O)OC[C@@]1(C#N)O[C@@H](c2ccc3c(N)ncnn23)[C@H](O)[C@@H]1O` [Compound 9, ((2R,3S,4R,5S)-5-(4-aminopyrrolo[2,1-f][1,2,4]triazin-7-yl)-2-cyano-3,4-dihydroxytetrahydrofuran-2-yl)methyl propyl carbonate], the pEC50 in test [1] (setting [3]) was 4.83; in test [2] it was 4.80.

Turning to `CC[C@@H](C)OC(=O)OC[C@@]1(C#N)O[C@@H](c2ccc3c(N)ncnn23)[C@H](O)[C@@H]1O` [Compound 10, ((2R,3S,4R,5S)-5-(4-aminopyrrolo[2,1-f][1,2,4]triazin-7-yl)-2-cyano-3,4-dihydroxytetrahydrofuran-2-yl)methyl ((R)-sec-butyl) carbonate], the pEC50 in test [1] (setting [3]) was 4.45; in test [2], 4.94.

`CC(C)OC(=O)OC[C@@]1(C#N)O[C@@H](c2ccc3c(N)ncnn23)[C@H](O)[C@@H]1O` [Compound 11, ((2R,3S,4R,5S)-5-(4-aminopyrrolo[2,1-f][1,2,4]triazin-7-yl)-2-cyano-3,4-dihydroxytetrahydrofuran-2-yl)methyl isopropyl carbonate]: the pEC50 in test [1] (setting [3]) was 4.51; in test [2], 4.92.

Regarding `N#C[C@]1(COC(=O)OC2CCOCC2)O[C@@H](c2ccc3c(N)ncnn23)[C@H](O)[C@@H]1O` [Compound 12, ((2R,3S,4R,5S)-5-(4-aminopyrrolo[2,1-f][1,2,4]triazin-7-yl)-2-cyano-3,4-dihydroxytetrahydrofuran-2-yl)methyl (tetrahydro-2H-pyran-4-yl) carbonate], the pEC50 in test [1] (setting [3]) was 4.56; in test [2], 5.05.

`CC(C)(C)OC(=O)OC[C@@]1(C#N)O[C@@H](c2ccc3c(N)ncnn23)[C@H](O)[C@@H]1O` [Compound 13, ((2R,3S,4R,5S)-5-(4-aminopyrrolo[2,1-f][1,2,4]triazin-7-yl)-2-cyano-3,4-dihydroxytetrahydrofuran-2-yl)methyl tert-butyl carbonate]: the pEC50 in test [1] (HRV14, H1-HeLa) is 5.33; in test [2], 4.97.

For the compound `CCC(CC)OC(=O)OC[C@@]1(C#N)O[C@@H](c2ccc3c(N)ncnn23)[C@H](O)[C@@H]1O` [Compound 14, ((2R,3S,4R,5S)-5-(4-aminopyrrolo[2,1-f][1,2,4]triazin-7-yl)-2-cyano-3,4-dihydroxytetrahydrofuran-2-yl)methyl pentan-3-yl carbonate], the figures for the pEC50 in test [1] (setting [3]) and in test [2] were 4.35 and 4.83, respectively.

Turning to `CC(C)COC(=O)OC[C@@]1(C#N)O[C@@H](c2ccc3c(N)ncnn23)[C@@H]2OC(=O)O[C@@H]21` [Compound 15, ((3aS,4R,6S,6aS)-6-(4-aminopyrrolo[2,1-f][1,2,4]triazin-7-yl)-4-cyano-2-oxotetrahydrofuro[3,4-d][1,3]dioxol-4-yl)methyl isobutyl carbonate], the pEC50 in test [1] (setting [3]) is 5.12; in test [2], 4.94.

For the compound `CC(C)COC(=O)Nc1ncnn2c([C@@H]3O[C@](C#N)(CO)[C@@H](O)[C@H]3O)ccc12` [Compound 16, Isobutyl (7-((2S,3R,4S,5R)-5-cyano-3,4-dihydroxy-5-(hydroxymethyl)tetrahydrofuran-2-yl)pyrrolo[2,1-f][1,2,4]triazin-4-yl)carbamate], the pEC50 in test [1] (setting [3]) and in test [2] was 4.30 each time.

The record behind these values is US20230382940A1, “ANTIVIRAL COMPOUNDS AND METHODS OF MAKING AND USING THE SAME” (Gilead Sciences, Inc., priority 2022, published 2023).
